2 compounds from EP4755396A1, “TREATMENT OF P53 GENE MUTATION OR DEFECT NEGATIVE CANCER AND TUMOR PATIENTS” (Ascentawits Pharmaceuticals, Ltd., priority 2023, dated 2025) can be followed below.

In one assay the test system is H460 cells. The assay can be described thus: Cell proliferation experiment (3 days) with different administration sequences. Particulars: after the addition of Nutlin-3, different administration sequences (Figure 2). In kind it is cell-based. On the procedure: Further combination therapy experiments with different administration sequences of AST-3424 were carried out. Dosing regimens were set for the experiments.
Monotherapy: Each well was added with AST-3424 alone, Nutlin-3 alone, 5 µL of each compound in different concentrations (400 times) and 5 µL of medium. The cells were treated (DMSO 0.25% and 0.50%).
Combination therapy: Cells were treated with 5 µL each of AST-3424 and Nutlin-3 in different administration sequences: AST-3424 pre-treatment for 2 hours followed by co-treatment with Nutlin-3 for 6 hours; Nutlin-3 pre-treatment for 2 hours followed by co-treatment with AST-3424 for 6 hours; and co-treatment with AST-3424 and Nutlin-3 for 6 hours.

The next assay concerns A549 cells. In words: Cell cycle G2/M arrest, PI staining flow cytometry. Particulars: second experiment, 0.3-9 nM AST-3424, 5 µM Nutlin-3, AST-3424 pre-treatment 2 hours (Figure 6). Type of assay: cell-based. On the procedure: A second experiment was further conducted, in order to further study the effects of different concentrations of AST-3424 alone, Nutlin-3 alone and the two in combination and different administration sequences in the combination therapy on the cell cycle of H460/A549 cells (p53 wild-type, protein normal expression).
The remaining operations were similar to the above experiment, and the compound treatment conditions were as follows:
For A549 cell line, 1% DMSO, adding 5 µM Nutlin-3 for treatment for 22 hours, adding 0.3 nM AST-3424 for treatment for 24 hours, adding 1 nM AST-3424 for treatment for 24 hours, adding 9 nM AST-3424 for treatment for 24 hours, and adding 9 nM AST-3424 for treatment for 24 hours.
For A549 cell line, • Adding 0.3 nM AST-3424 for pre-treatment for 2 hours, and then adding 5 µM Nutlin-3 for co-treatment for 22 hours; • Adding 1 nM AST-3424 for pre-treatment for 2 hours, and then adding 5 µM Nutlin-3 for co-treatment for 22 hours; • Adding 3 nM AST-3424 for pre-treatment for 2 hours, and then adding 5 µM Nutlin-3 for co-treatment for 22 hours; • Adding 9 nM AST-3424 for pre-treatment for 2 hours, and then adding 5 µM Nutlin-3 for co-treatment for 22 hours.

The subject of a further assay is HPAF-II cells. The assay can be described thus: Cell cycle G2/M arrest, PI staining flow cytometry. In kind it is cell-based. The conditions noted are these: HPAF-II cells with p53 pathogenic mutation, 0.1 nM AST-3424, 5 µM Nutlin-3, 24 hours (Figure 5). On the procedure:
Overview of the experimental process: • 1) H460/HPAF-II cell suspensions were added to a 24-well plate, with a cell density of 100000 /well and 995 µL of medium per well. • 2) The cells were cultured overnight in an incubator at 37°C, 5% CO2. • 3) Compound Treatment
After 24 hours of cell plating, according to the protocol, each cell line experiment was grouped as: Monotherapy: After 24 hours of cell plating, each well was supplied with 5µL of test compounds at different concentrations: 1% DMSO, 5 µM Nutlin-3 and 0.1 nM AST-3424, shaken gently to ensure even mixing, and then placed at 37°C, 5% CO2 in an incubator.
To cells AST-3424 pre-treatment for 2 hours followed by co-treatment with Nutlin-3 for 24 hours.
To cells Nutlin-3 pre-treatment for 2 hours followed by co-treatment with AST -3424 for 24 hours.
Co-treatment with AST-3424 and Nutlin-3 for 24 hours.
4) The cells were digested, centrifuged at 1000 g at 4°C, washed once with pre-cooled PBS, centrifuged at 1000 g at 4°C, and fixed with 1 mL of pre-cooled 70% ethanol at -20°C overnight.
5) The cells were centrifuged at 3000g at 4°C, washed once with pre-cooled PBS (phosphate buffer), centrifuged at 3000g at 4°C. Prepare PI staining solution. […] Flow cytometric detection was performed on the same day, and the proportion of cells in different cell cycle phases was analyzed using FlowJo. […]
In general terms: In flow cytometry, cells or beads pass a laser one at a time.

In assay [1] the test system is Total P53, MDM2, P21, AKR1C3 proteins in H460 cells. In words: WB detection, presence and absence of Nutlin-3. In kind it is cell-based, human. The conditions noted are these: wild-type H460, 5 µM Nutlin-3, 24h, compared with the H460 wild-type DMSO group (Figures 29, 30).
Protocol: (§1) • 1) H460 and H460 P53 KO cell suspensions were added to a 24-well plate, with a cell density of 100000 /well and 995 µL of medium per well. • 2) The cells were cultured overnight in an incubator at 37°C, 5% CO2. • 3) Compound Treatment
(§2) After 24 hours of cell plating, according to the protocol, each cell line experiment was grouped as: H460 WT untreated group, H460 P53 KO # 1 untreated group, H460 P53 KO # 7 untreated group, H460 P53 KO # 8 untreated group, H460 P53 KO # 12 untreated group, H460 WT 0.1% DMSO treated group, H460 WT 5 µM Nutlin-3 treated group, H460 P53 KO # 1 5 µM Nutlin-3 treated group, H460 P53 KO # 7 5 µM Nutlin-3 treated group, H460 P53 KO # 8 5 µM Nutlin-3 treated group, H460 P53 KO # 12 5 µM Nutlin-3 treated group. […]
(§3) • 1) The cell plates were taken back, the medium supernatant was discarded, and the plates were gently rinsed with PBS. […] The cells were scraped off with a cell scraper, lysed on ice for 30 min, and centrifuged at 14000 rpm and 4°C for 10 min. • 2) Protein quantification was performed using the BCA method. […] Solutions A and B of the ECL luminescence solution (SuperSignal West Femto Maximum Sensitivity) were mixed and added to the membrane dried away from water. […]
Assay [2] relates to Total P53, MDM2, P21, AKR1C3 proteins in H460 P53 KO cells. In words: WB detection, presence and absence of Nutlin-3. In kind it is cell-based, human. The conditions noted are these: H460 P53 KO cells (#1, #7, #8, #12), 5 µM Nutlin-3, 24h, compared to H460 wild-type DMSO group (Figures 29, 30).
Protocol: as §1, §2, §3

Regarding `C[C@H](OP(=O)(N1CC1)N1CC1)c1ccc([N+](=O)[O-])c(Oc2cccc(C(=O)N(C)C)c2)c1` [AST-3424], in the assay with H460 cells, the “proliferation inhibition rate of AST-3424” value is “significantly increased”. For the same compound, the “G2/M cell cycle arrest” value with A549 cells is recorded as “concentration-dependent G2/M cell cycle arrest”.

Take `COc1ccc(C2=NC(c3ccc(Cl)cc3)C(c3ccc(Cl)cc3)N2C(=O)N2CCNC(=O)C2)c(OC(C)C)c1` (racemic) [Nutlin-3]: in the assay on HPAF-II cells, the “cell cycle (G0/G1, S, G2/M phases)” value is recorded as “no effect”. The “expressions of MDM2, P53, P21 and AKR1C3 proteins (WB)” value is “all upregulated” in assay [1] and “not upregulated” in assay [2].
